Measured values from patent US20180028477A1, “TREATMENT OF CARDIAC REMODELING AND OTHER HEART CONDITIONS” (C & C BIOPHARMA, LLC, priority 2013, published 2018).
Entries after “also recorded” stand apart in the source; their conditions may differ.

How the values were obtained:
[1] = system: myocyte apoptosis during TAC; assay: Myocyte apoptosis in myocardial tissue after TAC, TUNEL assay (Example 10); assay type: in vivo, mice
Text: In parallel samples from the experiment described in Example 4, apoptosis was quantitated in myocardial tissue from sham- and TAC-operated mice in the presence of vehicle or 8MI. Apoptosis was detected following recommended protocol for the commercially available terminal deoxynucleotidyl transferase-mediated dUTP nick-end labeling (TUNEL) assay kit (Cardiotacs, Trevigne, Gaithersburg, Md.).

[2] = system: pressure overload produced by transverse aortic coarctation (TAC) in C57/B16 mice; assay type: in vivo
Procedure: […]. Mice were treated with daily injections of MEF2 inhibitor 8MI at the indicated concentrations for two weeks beginning immediately after transverse aortic banding. N=at least 3 per condition. Mice were subjected to either a sham operation (dark gray bars) or TAC (light gray bars). […] Ejection fraction, a measure of contractile function, was determined by echocardiography on a Vevo 770 ultrasound system prior to sacrifice at two weeks.
[…]. TAC has been used extensively to model the clinical hypertrophic stimuli of hypertension, aortic valve disease, and other types of pressure overload. In vivo pressure overload was created in wild type C57/B16 by creation of a surgical restriction in the transverse aorta between the origins of the right and left carotid arteries as previously described in Wei et. al. 2008. Control littermates were subjected to a sham operation. […] Trans-aortic gradients were determined by simultaneous measurements from the right and left carotid arteries using Statham pressure transducers (model P23XL, Viggo-Spectramed, Oxnard, Calif.) zeroed at the level of the right atrium. Pressures were continuously recorded as described in Wei et. al. 2008. […]
C57/B16 mice were treated with 8MI for two weeks and evaluated for cardiac function by echocardiography and for cardiac mass using a standard index of heart weight to tibia length (HW/TL) after sacrifice. […]

[3] = Metabolic stability in human liver microsomes fortified with NADPH (Example 11); assay type: in vitro ADME; design: CLint scaled: dose or concentration left out as unconfirmed
Text: Drug clearance is a measure of the ability of the body or an organ to eliminate a drug from the blood circulation. Systemic clearance is a measure of the ability of the entire body to eliminate the drug. Organ clearance is a measure of the ability of a particular organ (hepatic or renal) to eliminate the drug. For hepatic clearance, the liver is the major organ for drug metabolism and the key organ for drug clearance. Human liver microsomes (HLM) fortified with NADPH is a standard way to measure in vitro metabolism and predict in vivo clearance. CLint (intrinsic clearance) is the link between in vitro and in vivo studies, which can be estimated based on the mono-exponential decay model: Ct=C X e^−kt.
Human liver microsomes fortified with NADPH is a standard approach to evaluate metabolic stability mediated by CYP (cytochrome P450) enzymes in vitro. The reaction mixture (0.4 mL) contained 0.5 mg/mL human liver microsomes, 100 mM phosphate buffer (pH 7.4) and […] of test compounds. The mixture was first warmed up for 5 min in a 37° C. shaking water bath and then NADPH at a final concentration of 1 mM was added to initiate the reaction. Aliquots […] were taken at specified time points and mixed with ice-cold methanol (containing internal standard) to stop the reaction. The mixture was vortexed briefly and centrifuged for protein precipitation. An aliquot of […] supernatant was subject to LC-MS/MS analysis. The percentage of compound disappearance was used to calculate the rate of metabolism.

a variety of cells = assay: Toxicity in the culture of a variety of cells; assay type: cell-based
[4] = Tolerability in mice, daily dosing for four weeks; assay type: in vivo; conditions: 100 mg/Kg daily for four weeks
[5] = system: Neonatal Rat Ventricular Myocytes (NRVMs); assay: Serum (FBS)-induced hypertrophy of Neonatal Rat Ventricular Myocytes in vitro; assay type: cell-based
Procedure: The cells were also treated with DMSO (light gray bars) or a vehicle (dark gray bars) as a negative control. The order of potency for inhibitors was DMSO<7MI<TSA<8MI. Viability was unchanged (not shown).
Next, the ability of 7MI and 8MI to inhibit hypertrophy in vitro was tested (FIG. 2A). […] However, fetal calf serum, which contained a rich variety of growth factors, was chosen as the most robust and multifactorial stimulus for cardiomyocyte growth available, reasoning that a similarly robust and powerful inhibitor would be required to block this hypertrophy.

[6] = system: ventricular fibrosis after TAC in mice; assay: TAC 21 days: ventricular fibrosis, Masson's Trichrome (Example 5); assay type: in vivo; conditions: 21 days after TAC
Text: Using cardiac tissue samples obtained from the same mice treated under the experimental conditions described in Example 4, Masson's Trichrome was used to stain fibrotic tissue (FIG. 6A). Fibrotic area was quantified and expressed relative to the total tissue area (FIG. 6B). Ventricular fibrosis was prominent in mice 21 days after TAC, but not in sham-operated mice (FIGS. 6A and 6B).

SMILES: Nc1ccccc1NC(=O)CCCCCC(=O)Nc1cccc(Br)c1 [8MI]
- apoptosis in TAC-operated mice at the highest dose ([1]; 40 mg/kg): reduced to approximately the same level of apoptosis observed for the sham-operated mice
- apoptosis in TAC-operated mice ([1]; dose range): reduced in TAC-operated mice by 8MI in a dose-dependent manner; also recorded: prevented myocyte apoptosis during TAC in a dose dependent manner
- mortality ([2]; mouse, in vivo): no mortality
- TAC-induced reduction of Left Ventricular Ejection Fraction (LVEF) ([2]; two weeks after TAC, 5, 20 and 40 μg/g 8MI daily): largely prevented this impairment of function
- K (rate constant) ([3]; 0.5 mg/mL human liver microsomes, 1 mM NADPH, pH 7.4, 37° C.): 0.0046 min⁻¹
- Clhp (hepatic clearance) ([3]; human liver microsomes): 3.85 mL/min/kg
- CLint scaled ([3]; pH 7.4, human liver microsomes, from mono-exponential decay model, read-out: Clint (intrinsic clearance)): 4.73 mL/min/kg
- concentration up to which no apparent toxicity was seen (a variety of cells): up to 20 μM
- signs of kidney or liver damage or other adverse effects [4]: no sign of kidney or liver damage or other adverse effects; also recorded: without any signs of kidney or liver disease or other adverse effects
- viability ([5]; NRVMs (not shown)): unchanged
- order of potency for inhibitors ([5]; NRVMs, FBS-induced growth): most potent inhibitor; also recorded: DMSO<7MI<TSA<8MI
- growth response to Fetal Bovine Serum / serum-stimulated myocyte growth (hypertrophy) ([5]; NRVMs, pre-treatment with a range of doses): sufficient to block myocyte hypertrophy; also recorded: depressed growth response
- fibrotic response (fibrotic area relative to total tissue area) ([6]; dose range): significantly reduced in a dose-dependent manner; also recorded: reduces fibrosis
- fibrotic response (fibrotic area relative to total tissue area) at the highest dosage ([6]; highest dosage): eliminated
